Test results reported in patent US20060025326A1, “Method for treating carrier particles and its use” (LAB Pharma Oy, priority 2002, published 2006).

Assay: Microcalorimetric study of amorphous material
Type: physicochemical
Conditions: microcalorimetric study / detected in this work

CC(C)(C)NCC(O)c1ccc(O)c(CO)c1 (stereo not shown) [salbutamol]
amorphous (unstable) material: some amorphous material
